Measured values from patent publication US20260347843A1, “NERVOUS SYSTEM DELIVERY ENHANCER” (priority 2022, published 2026).

Columns and labels:
[1] = tested on: exon 23/intron 23 of dystrophin pre-mRNA; assay: Exon 23 skipping efficiency in the brain after intraventricular administration; assay type: in vivo, mouse; conditions: TGN-073 250 μg, hippocampus, striatum, cortex (any site), 7 days
Protocol: The mouse used was a 6-week-old male C57BL/6J mouse having a body weight of 20 g. In the following Examples, all the experiments performed using a mouse were based on n=3. PMO (the PMO single administration group) at 2.5 nmol or 2.5 nmol PMO with 250 μg of TGN-073 added thereto (the PMO/TGN-073 coadministration group) was administered in an amount of 10 μL to the left cerebral ventricle of a mouse.
At 1 week after the intraventricular administration, the mouse was dissected, and the hippocampus, striatum, and cortex (occipital lobe) were extirpated. Subsequently, mRNA was extracted from each tissue, using Isogen II. On the total RNA (900 ng) extracted, One-Step RT-PCR was performed using Qiagen One Step RT-PCR Kit (manufactured by Qiagen N.V.). A reaction solution was prepared in accordance with the protocol attached to the Kit. […]
A reaction product of the above-described RT-PCR, in an amount of 1 μL, was analyzed using Bioanalyzer 2100 (manufactured by Agilent Technologies, Inc.), and using an Agilent DNA1000 kit. The number “A” of moles of the nucleotide of the band skipped by exon 23 and the number “B” of moles of the nucleotide of the band not skipped by exon 23 were measured. On the basis of the measurement values of these “A” and “B”, the skipping efficiency was determined in accordance with the following formula: skipping efficiency (%)=A/(A+B)×100. […]

[2] = ASO concentration in mouse nervous tissue after intraventricular administration (quantitative RT-PCR relative to U6 snRNA); assay type: in vivo
Protocol: Seven-week-old female ICR mice anesthetized with 2.5 to 4% isoflurane were fixed to a brain stereotaxic apparatus. Then, skin between the ears was cut open 2 to 3 cm anteroposteriorly, and perforated 1 mm leftward and 0.2 mm posteriorly from the bregma using a 1 mm diameter drill. A Hamilton syringe was filled with the nucleic acid agent. Through the perforated site, a needle was inserted approximately 3 mm deep. The ASO at a dose of 0.95 nmol (5 μg) per mouse was administered into the left lateral ventricle (n=4 to 7/group). The group to which ASO and TGN-073 were coadministered (hereinafter, the group is referred to as the “ASO/TGN-073 coadministration group”) means that ASO mixed with TGN-073 was administered. The group to which only ASO was administered (hereinafter, the group is referred to as the “ASO single administration group”) means that only ASO was administered without being mixed with TGN-073. The dose of TGN-073 in the ASO/TGN-073 coadministration group was 0.25 mg per mouse. After the intraventricular administration, the skin was sutured with a nylon thread. In addition, mice to which only TGN-073 was administered (hereinafter, the mice are referred to as the “TGN-073 administration group”) and mice to which only PBS was administered (hereinafter, the mice are referred to as the “PBS administration group”) were produced as controls.
A left hippocampus was extirpated from each of the mice at 3 hours or 7 days after the intraventricular administration. Using an IsogenI kit (GeneDesign Inc.), RNA was extracted from the left hippocampus extirpated. A cDNA was synthesized using Transcriptor Universal cDNA Master, DNase (Roche Diagnostics) in accordance with the protocol.
The intracerebral ASO concentration (the amount of the nucleic acid delivered to the brain) was measured by extracting RNA from the left hippocampus extirpated in the same manner as described above, and performing quantitative RT-PCR using a primer pair for amplifying ASO and TaqMan Small RNA Assay (Roche Applied Science). The intracerebral ASO concentration was obtained by calculating the ASO content relative to U6 snRNA (an internal standard gene). […]

[3] = Evaluation of motor function in an open-field test; assay type: in vivo, mouse; conditions: coadministered with Mapt-targeting ASO (50 μg); 1 hour after intraventricular administration
Protocol: On the ASO described in Table 2, the preparation of the nucleic acid, an in vivo experiment, and the evaluation of the target gene suppression effect were performed by the same methods as in Example 1. In this Example, however, the dose of the nucleic acid agent per mouse was 9.4 nmol (50 μg).
By the below-described methods, evaluation of central nervous system toxicity and evaluation of motor function were performed on mice after intraventricular administration.
To evaluate the motor function, an open-field test was performed at each point of time after the intraventricular administration. Specifically, a mouse was placed in the center of a cage (50 cm in width×50 cm in […]×40 cm in height), and the track of the mouse was recorded for 5 minutes. On the basis of the data recorded, the total maximum moving speed (m/s) and the moving time(s) were measured using the video tracking software (ANY-maze).

SMILES: O=S(=O)(Nc1ncccc1OCc1ccccc1)c1ccccc1 [TGN-073, N-(3-benzyloxypyridin-2-yl)-benzene-sulfonamide]
- Exon 23 skipping efficiency vs Chol-HDO (PMO) single administration ([1]; coadministered with Chol-HDO (PMO) (2.5 nmol)): noticeable increase
- Exon 23 skipping efficiency vs PMO single administration ([1]; coadministered with PMO (2.5 nmol)): noticeable increase
- ASO concentration in the central nervous system (hippocampus) vs ASO single administration ([2]; Example 7, coadministered with Mapt-targeting ASO of Table 6 (9.4 nmol, 50 μg), TGN-073-mes 0.125 mg/mouse per method, 7 days): marked enhancement
- ASO concentration in the central nervous system (hippocampus) vs nucleic acid agent alone ([2]; coadministered with ASO (single-stranded, 0.95 nmol), 7 days): dramatic increase
- ASO concentration in the central nervous system (hippocampus) vs nucleic acid agent alone ([2]; coadministered with Chol-HDO (0.95 nmol), 7 days): dramatic increase
- ASO concentration in the central nervous system (hippocampus) vs nucleic acid agent alone ([2]; coadministered with HDO (0.95 nmol), 7 days): dramatic increase
- ASO concentration in the hippocampus (amount of nucleic acid delivered to the brain) vs ASO single administration ([2]; coadministered with Malat1-targeting ASO (0.95 nmol, 5 μg), TGN-073 0.25 mg per mouse, 3 hours or 7 days): dramatic increase
- ASO concentration in the lumbar cord portion vs ASO single administration ([2]; coadministered with Malat1-targeting ASO (1.7 nmol, 12.5 μg), 7 days): dramatic increase
- Maximum moving speed in open-field test vs ASO single administration [3]: substantially the same maximum moving speed
- Moving time in open-field test vs ASO single administration [3]: the same moving time
